# Laboratory results as given in PubChem BioAssay AID1963969 (Molecular Pharmacology Branch, DTP, NCI, 2024).
# Tested on: 817829-284-R-J1-PDC multi-cell spheroid viability
# Test: Anticancer human tumor 817829-284-R-J1-PDC patient-derived colon adenocarcinoma cell line growth inhibition [PI3K]
# Conditions: for IC50: curve of first compound; for viability, T/C: stronger effect = lower value
# How it was run: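 Stroma-containing spheroids: tumor line, pooled-donor HUVEC, hMSC. Treatments: targeted agents with PI3K inhibitors. Dosing: clinically relevant, half-log spacing, 10 microM ceiling without known Cmax. Read-out: cell viability.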
# 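Note: spheroids exposed to agents for seven days before readout.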
# 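Throughout, for viability, T/C: percent of vehicle DMSO control viability which is 100%.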
smiles,measurement,setting,value
CC1(C)CCC(Nc2ncc(C(F)(F)F)c(-c3c[nH]c4c(P(C)(C)=O)c(C#N)ccc34)n2)CN1 (configuration not stated) + Cc1nc(NC(=O)N2CCCC2C(N)=O)sc1-c1ccnc(C(C)(C)C(F)(F)F)c1,IC50,second compound 0.0316 µM,< 31.6 nM
same,IC50,second compound 0.1 µM,< 31.6 nM
same,IC50,second compound 0.316 µM,< 31.6 nM
same,IC50,second compound 1 µM,< 31.6 nM
same,IC50,second compound 3.16 µM,< 31.6 nM
same,IC50,second compound 10 µM,< 31.6 nM
same,"viability, T/C","second compound 0.0316 µM, first compound 0.0316 µM",30.4%
same,"viability, T/C","second compound 0.0316 µM, first compound 0.1 µM",24.9%
same,"viability, T/C","second compound 0.0316 µM, first compound 0.316 µM",26.7%
same,"viability, T/C","second compound 0.0316 µM, first compound 1 µM",32.1%
same,"viability, T/C","second compound 0.0316 µM, first compound 3.16 µM",30.8%
same,"viability, T/C","second compound 0.0316 µM, first compound 10 µM",1.2%
same,"viability, T/C","second compound 0.1 µM, first compound 0.0316 µM",27.2%
same,"viability, T/C","second compound 0.1 µM, first compound 0.1 µM",24.7%
same,"viability, T/C","second compound 0.1 µM, first compound 0.316 µM",32.2%
same,"viability, T/C","second compound 0.1 µM, first compound 1 µM",39.8%
same,"viability, T/C","second compound 0.1 µM, first compound 3.16 µM",28.7%
same,"viability, T/C","second compound 0.1 µM, first compound 10 µM",1.28%
same,"viability, T/C","second compound 0.316 µM, first compound 0.0316 µM",25%
same,"viability, T/C","second compound 0.316 µM, first compound 0.1 µM",27.7%
same,"viability, T/C","second compound 0.316 µM, first compound 0.316 µM",26.9%
same,"viability, T/C","second compound 0.316 µM, first compound 1 µM",25.9%
same,"viability, T/C","second compound 0.316 µM, first compound 3.16 µM",32.7%
same,"viability, T/C","second compound 0.316 µM, first compound 10 µM",1.02%
same,"viability, T/C","second compound 1 µM, first compound 0.0316 µM",26.6%
same,"viability, T/C","second compound 1 µM, first compound 0.1 µM",26.6%
same,"viability, T/C","second compound 1 µM, first compound 0.316 µM",31.8%
same,"viability, T/C","second compound 1 µM, first compound 1 µM",33.4%
same,"viability, T/C","second compound 1 µM, first compound 3.16 µM",30.6%
same,"viability, T/C","second compound 1 µM, first compound 10 µM",1.41%
same,"viability, T/C","second compound 3.16 µM, first compound 0.0316 µM",29.6%
same,"viability, T/C","second compound 3.16 µM, first compound 0.1 µM",26.2%
same,"viability, T/C","second compound 3.16 µM, first compound 0.316 µM",28.6%
same,"viability, T/C","second compound 3.16 µM, first compound 1 µM",28.7%
same,"viability, T/C","second compound 3.16 µM, first compound 3.16 µM",29%
same,"viability, T/C","second compound 3.16 µM, first compound 10 µM",0.82%
same,"viability, T/C","second compound 10 µM, first compound 0.0316 µM",23.9%
same,"viability, T/C","second compound 10 µM, first compound 0.1 µM",28.4%
same,"viability, T/C","second compound 10 µM, first compound 0.316 µM",24.6%
same,"viability, T/C","second compound 10 µM, first compound 1 µM",21.3%
same,"viability, T/C","second compound 10 µM, first compound 3.16 µM",21.2%
same,"viability, T/C","second compound 10 µM, first compound 10 µM",0.69%
